The source of these data is BindingDB's records for doi:10.1021/bi701954p (University of Maryland Biotechnology Institute, 2008).

Molecules are shown by their SMILES. Values joined by “and” are separate entries in the source; they are usually repeats but may differ in a detail not shown here. Identical values can stand only once.

In this experiment the target is T1, Oxaloacetate decarboxylase (Pseudomonas aeruginosa (strain ATCC 15692 / DSM 22644 / CIP 104116 / JCM 14847 / LMG 12228 / 1C / PRS 101 / PAO1), UniProt Q9HUU1).
T1 sequence (Q9HUU1 whole entry): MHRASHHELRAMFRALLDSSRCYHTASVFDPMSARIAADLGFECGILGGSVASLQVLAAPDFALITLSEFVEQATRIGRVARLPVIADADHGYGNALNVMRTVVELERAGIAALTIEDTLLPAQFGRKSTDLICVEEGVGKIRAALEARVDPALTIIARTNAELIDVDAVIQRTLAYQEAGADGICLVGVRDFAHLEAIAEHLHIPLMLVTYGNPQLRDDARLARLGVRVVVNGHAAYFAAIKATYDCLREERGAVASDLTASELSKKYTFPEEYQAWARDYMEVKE
Nature of the experiment: Inhibition Assay. The text has this: Competitive inhibition constant determined for PA4872 catalyzed oxaloacetate decarboxylation.
Compound `O=C(O)C(=O)O` displayed an inhibition constant (Ki) of 43 µM.
In turn, `O=C(O)C(O)(O)C(F)(F)C(=O)O` [3,3-Difluoroxaloacetate] returned an inhibition constant Ki of 450 µM.
With `CC(=O)CC(=O)C(=O)O` [Acetopyruvate], the inhibition constant (Ki) was 1090 µM and 560 µM.
`O=C(O)C(=O)CP(=O)(O)O` [Phosphonopyruvate]: the affinity, expressed as Ki, was 3000 µM.
As for `CC(=O)C(=O)O` [Pyruvate], affinity was put at a Ki of 7200 µM.
With `CCCC(=O)C(=O)O` [alpha-ketovalerate], the Ki was 6700 µM and 3200 µM.

As usually defined, the Ki is a dissociation constant, usually derived from enzyme kinetics or from competition with a known ligand. The low end stands for higher affinity, the high end for lower affinity.
